{"source": "patent US20240252557A1", "about": "“MULTIBIOTIC SUPPLEMENTS” (Natals, Inc., priority 2023, published 2024)", "system": "Caco-2/THP1-Blue cell co-cultures", "assay": "Transepithelial electrical resistance (TEER) of Caco-2/THP1-Blue co-cultures, model of mild intestinal barrier disruption", "type": "cell-based, human", "conditions": "48 h colonic fermentation samples, filtered and sterilized; TEER after 24 h", "excerpt": "This study used an in vitro cell co-culture to create a model of mild intestinal barrier disruption. This method utilizes a co-culture model of intestinal epithelial-like cells (Caco-2 cells) and human monocytes/macrophages (THP1 cells) and is based on the work of Satsu and colleagues (PMID: 17010338) and is described by Daguet et al. (doi: 10.1016r.jff.2015.11.005). Caco-2 cells are allowed to grow into a monolayer that has physiological properties of the intestinal lining, including tight junctions. Tight junction proteins keep adjacent epithelial cells together, which forms a barrier that is virtually impermeable to macromolecules. The “tightness” of tight junctions can be measured as transepithelial electrical resistance (TEER), with a high TEER corresponding to a tighter barrier. THP1 monocytes were originally isolated from a human patient with acute leukemia. When stimulated with phorbol 12-myristate 13-acetate (PMA), these cells develop into macrophage-like cells that are able to adhere and are primed for toll-like receptor (TLR) signaling. […] TEER was measured after pre-treatment of the cell co-cultures, representing a baseline (0 hour) value. […] Changes in TEER values were measured after 24 hours.\nTEER was measured 24 h after pre-treatment of the co-cultures and each 24 h value was normalized to its corresponding Oh value and is shown as percentage of initial value. […]"}
{"compound": "CCCC(=O)OCC(COC(=O)CCC)OC(=O)CCC", "note": "[tributyrin]", "values": [{"measurement": "barrier integrity (TEER) compared to the blank control", "result": "improved barrier integrity"}]}
